# Target: T1, recombinant glucosyltransferase domain of C. difficile Toxin B/TcdB (Clostridioides difficile, UniProt P18177)
# T1 construct: 6-His (C); purchased R&D Systems 6246-GT
# Test: biochemical
# T1 sequence (P18177 1-543): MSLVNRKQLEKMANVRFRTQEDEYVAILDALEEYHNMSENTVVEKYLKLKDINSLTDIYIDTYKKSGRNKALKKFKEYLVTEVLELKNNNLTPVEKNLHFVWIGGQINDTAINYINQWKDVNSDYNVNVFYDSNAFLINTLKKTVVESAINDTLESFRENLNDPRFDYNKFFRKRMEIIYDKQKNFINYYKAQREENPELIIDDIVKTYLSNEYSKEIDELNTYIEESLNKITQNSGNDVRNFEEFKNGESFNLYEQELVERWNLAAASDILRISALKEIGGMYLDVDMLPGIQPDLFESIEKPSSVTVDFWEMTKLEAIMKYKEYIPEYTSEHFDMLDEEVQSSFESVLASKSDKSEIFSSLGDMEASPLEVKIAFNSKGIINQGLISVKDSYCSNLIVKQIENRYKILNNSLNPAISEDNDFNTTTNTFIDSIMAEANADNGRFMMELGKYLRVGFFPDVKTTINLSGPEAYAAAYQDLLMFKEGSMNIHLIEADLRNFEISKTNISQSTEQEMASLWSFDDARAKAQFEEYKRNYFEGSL
row,SMILES,IC50 [µM]
1,"CC(C)c1ccc(NC(=O)c2ccc(CN3C(=O)c4ccc(Cl)cc4NC(=O)[C@H]3C)cc2)nc1 [Example 4az, (R)-4-((8-chloro-3-methyl-2,5-dioxo-2,3-dihydro-1H-benzo[e][1,4]diazepin-4(5H)-yl)methyl)-N-(5-isopropylpyridin-2-yl)benzamide]",0.1 to 0.999
2,Cc1ccc(NC(=O)c2ccc(CN3C(=O)c4ccc(Cl)cc4NC(=O)[C@H]3CCN3CCNC(=O)C3)cc2)nc1 [Example 10e],1 to 10
3,O=C(Nc1cc(CN2C(=O)c3ccc(Cl)cc3NC(=O)[C@H]2Cc2ccccn2)ccc1C(=O)O)c1ccncc1 [Example 22f],1 to 10
4,O=C(O)c1ccc(CN2C(=O)c3ccc(Br)cc3NC(=O)[C@H]2Cc2cccnc2)cc1 [Example 1g],1 to 10
5,"N#Cc1cccc(C[C@@H]2C(=O)Nc3cc(Cl)ccc3C(=O)N2Cc2ccc(C(=O)Nc3ccccn3)cc2)c1 [Example 4ak, (R)-4-((8-chloro-3-(3-cyanobenzyl)-2,5-dioxo-2,3-dihydro-1H-benzo[e][1,4]diazepin-4(5H)-yl)methyl)-N-(pyridin-2-yl)benzamide]",< 0.1
6,O=C(c1ccc(CN2C(=O)c3ccc(Cl)cc3NC(=O)[C@H]2Cc2ccccn2)cc1)c1cccn2ncnc12 [Example 31f],< 0.1
7,"O=C1Nc2cc(Cl)ccc2C(=O)N(Cc2ccc(S(=O)(=O)Nc3ccccn3)cc2)[C@@H]1Cc1cccnc1 [Example 36a, (R)-4-((8-Chloro-2,5-dioxo-3-(pyridin-3-ylmethyl)-2,3-dihydro-1H-benzo[e][1,4]diazepin-4(5H)-yl)methyl)-N-(pyridin-2-yl)benzenesulfonamide]",1 to 10
8,"CNC(=O)c1ccc(-c2cc(CN3C(=O)c4ccc(Cl)cc4NC(=O)[C@H]3Cc3ccccn3)ccc2C(=O)O)cc1 [Example 8o, (R)-5-((8-chloro-2,5-dioxo-3-(pyridin-2-ylmethyl)-2,3-dihydro-1H-benzo[e][1,4]diazepin-4(5H)-yl)methyl)-4′-(methylcarbamoyl)-[1,1′-biphenyl]-2-carboxylic acid]",1 to 10
9,"O=C(Nc1ccccn1)c1ccc(CN2C(=O)c3ccc(Cl)cc3NC(=O)[C@H]2Cc2ccccn2)cc1Cl [Example 4cj, (R)-2-chloro-4-((8-chloro-2,5-dioxo-3-(pyridin-2-ylmethyl)-2,3-dihydro-1H-benzo[e][1,4]diazepin-4(5H)-yl)methyl)-N-(pyridin-2-yl)benzamide]",< 0.1
10,"Cc1ccc(NC(=O)c2ccc(CN3C(=O)c4ccc(NC(=O)C(C)C)cc4NC(=O)[C@H]3C)cc2)nc1 [Example 18b, (R)-4-((8-isobutyramido-3-methyl-2,5-dioxo-2,3-dihydro-1H-benzo[e][1,4]diazepin-4(5H)-yl)methyl)-N-(5-methylpyridin-2-yl)benzamide]",10 to 35
11,"CC(C)c1ccc(NC(=O)c2ccc(CN3C(=O)c4ccc(Cl)cc4NC(=O)[C@H]3Cc3cccnc3)cc2)nc1 [Example 4at, (R)-4-((8-chloro-2,5-dioxo-3-(pyridin-3-ylmethyl)-2,3-dihydro-1H-benzo[e][1,4]diazepin-4(5H)-yl)methyl)-N-(5-isopropylpyridin-2-yl)benzamide]",< 0.1
12,"NC(=O)c1ccc(CN2C(=O)c3ccc(Cl)cc3NC(=O)[C@@H]2Cc2ccc(Cl)c(Cl)c2)cc1 [Example 13a, (S)-4-((8-Chloro-3-(3,4-dichlorobenzyl)-2,5-dioxo-2,3-dihydro-1H-benzo[e][1,4]diazepin-4(5H)-yl)methyl)benzamide]",10 to 35
13,"CC(=O)Nc1ccc2c(c1)NC(=O)[C@@H](C)N(Cc1ccc(C(=O)Nc3ccc(C)cn3)cc1)C2=O [Example 17a, (R)-4-((8-Acetamido-3-methyl-2,5-dioxo-2,3-dihydro-1H-benzo[e][1,4]diazepin-4(5H)-yl)methyl)-N-(5-methylpyridin-2-yl)benzamide]",0.1 to 0.999
14,"O=C(Nc1ccccn1)c1ccc(CN2C(=O)c3ccc(Cl)cc3NC(=O)[C@H]2Cc2ccncc2)cc1 [Example 4u, (R)-4-((8-chloro-2,5-dioxo-3-(pyridin-4-ylmethyl)-2,3-dihydro-1H-benzo[e][1,4]diazepin-4(5H)-yl)methyl)-N-(pyridin-2-yl)benzamide]",0.1 to 0.999
15,O=C(Nc1ccc(CN2C(=O)c3ccc(Cl)cc3NC(=O)[C@H]2Cc2ccccn2)cc1)c1cnccn1 [Example 27d],0.1 to 0.999
16,"O=C(O)c1ccc(CN2C(=O)c3ccc(Cl)cc3NC(=O)[C@H]2Cc2ccccn2)cc1-c1cccnc1 [Example 8m, (R)-4-((8-chloro-2,5-dioxo-3-(pyridin-2-ylmethyl)-2,3-dihydro-1H-benzo[e][1,4]diazepin-4(5H)-yl)methyl)-2-(pyridin-3-yl)benzoic acid]",1 to 10
17,"Cc1ccc(NC(=O)c2ccc(CN3C(=O)c4ccc(Cl)cc4NC(=O)[C@H]3CCN(C)C)cc2)nc1 [Example 10f, (R)-4-((8-chloro-3-(2-(dimethylamino)ethyl)-2,5-dioxo-2,3-dihydro-1H-benzo[e][1,4]diazepin-4(5H)-yl)methyl)-N-(5-methylpyridin-2-yl)benzamide]",10 to 35
18,"O=C(Nc1cccnn1)c1ccc(CN2C(=O)c3ccc(Cl)cc3NC(=O)[C@H]2Cc2ccccn2)cc1 [Example 4bl, (R)-4-((8-chloro-2,5-dioxo-3-(pyridin-2-ylmethyl)-2,3-dihydro-1H-benzo[e][1,4]diazepin-4(5H)-yl)methyl)-N-(pyridazin-3-yl)benzamide]",0.1 to 0.999
19,O=C(Nc1ccc(CN2C(=O)c3ccc(Cl)cc3NC(=O)[C@H]2Cc2ccccn2)cc1)c1nccs1 [Example 27e],0.1 to 0.999

row,SMILES,IC50 [µM]
1,"O=C(Nc1ccccn1)c1ccc(CN2C(=O)c3ccc(Cl)cc3NC(=O)C2Cc2cnccn2)cc1 (stereo not shown) [Example 4bu, 4-((8-chloro-2,5-dioxo-3-(pyrazin-2-ylmethyl)-2,3-dihydro-1H-benzo[e][1,4]diazepin-4(5H)-yl)methyl)-N-(pyridin-2-yl)benzamide]",< 0.1
2,NC(=O)c1ccc(CN2C(=O)c3ccc(Cl)cc3NC(=O)[C@H]2Cc2ccccn2)cc1 [Example 13d],0.1 to 0.999
3,C[C@@H]1C(=O)Nc2cc(Cl)ccc2C(=O)N1Cc1ccc(C(=O)O)cc1 [Example 3g],10 to 35
4,"O=C(Nc1nncs1)c1ccc(CN2C(=O)c3ccc(Cl)cc3NC(=O)[C@H]2Cc2ccccn2)cc1 [Example 4bp, (R)-4-((8-chloro-2,5-dioxo-3-(pyridin-2-ylmethyl)-2,3-dihydro-1H-benzo[e][1,4]diazepin-4(5H)-yl)methyl)-N-(1,3,4-thiadiazol-2-yl)benzamide]",0.1 to 0.999
5,O=C(Nc1ccccn1)c1ccc(CN2C(=O)c3ccc(Cl)cc3NC(=O)[C@@H]2Cc2cccnc2)cc1 [Example 35m],0.1 to 0.999
6,"C[C@@H]1C(=O)Nc2cc(Cl)ccc2C(=O)N1Cc1ccc(C(=O)Nc2ccc(-c3ccccc3)cn2)cc1 [Example 4bc, (R)-4-((8-chloro-3-methyl-2,5-dioxo-2,3-dihydro-1H-benzo[e][1,4]diazepin-4(5H)-yl)methyl)-N-(5-phenylpyridin-2-yl)benzamide]",0.1 to 0.999
7,O=C(Nc1ccccn1)c1ccc(CN2C(=O)c3ccc(Cl)cc3NC(=O)[C@H]2Cc2cccc(F)c2)cc1 [Example 35j],< 0.1
8,"Cc1cnc(NC(=O)c2ccc(CN3C(=O)c4ccc(Cl)cc4NC(=O)[C@H]3Cc3ccccn3)cc2C)nc1 [Example 5ag, (R)-4-((8-chloro-2,5-dioxo-3-(pyridin-2-ylmethyl)-2,3-dihydro-1H-benzo[e][1,4]diazepin-4(5H)-yl)methyl)-2-methyl-N-(5-methylpyrimidin-2-yl)benzamide]",< 0.1
9,"O=C1Nc2cc(Cl)ccc2C(=O)N(Cc2ccc(-n3cnc4cccnc4c3=O)cc2)[C@@H]1Cc1ccccn1 [Example 46a, (R)-8-Chloro-4-(4-(4-oxopyrido[3,2-c]pyrimidin-3(4H)-yl)benzyl)-3-(pyridin-2-ylmethyl)-3,4-dihydro-1H-benzo[e][1,4]diazepine-2,5-dione]",< 0.1
10,"O=C(Nc1ccc(C(F)(F)F)cn1)c1ccc(CN2C(=O)c3ccc(Cl)cc3NC(=O)[C@H]2Cc2ccccn2)s1 [Example 4bt, (R)-5-((8-chloro-2,5-dioxo-3-(pyridin-2-ylmethyl)-2,3-dihydro-1H-benzo[e][1,4]diazepin-4(5H)-yl)methyl)-N-(5-(trifluoromethyl)pyridin-2-yl)thiophene-2-carboxamide]",1 to 10
11,"O=C(O)c1ccc(CN2C(=O)c3ccc(Cl)cc3NC(=O)[C@H]2Cc2ccccn2)cc1-c1ccccc1 [Example 8e, (R)-5-((8-chloro-2,5-dioxo-3-(pyridin-2-ylmethyl)-2,3-dihydro-1H-benzo[e][1,4]diazepin-4(5H)-yl)methyl)-[1,1′-biphenyl]-2-carboxylic acid]",0.1 to 0.999
12,"Cc1cc(NC(=O)c2ccc(CN3C(=O)c4ccc(Cl)cc4NC(=O)[C@H]3Cc3cccnc3)cc2)no1 [Example 4e, (R)-4-((8-chloro-2,5-dioxo-3-(pyridin-3-ylmethyl)-2,3-dihydro-1H-benzo[e][1,4]diazepin-4(5H)-yl)methyl)-N-(5-methylisoxazol-3-yl)benzamide]",< 0.1
13,O=C(O)c1ccc(CN2C(=O)c3ccc(Cl)cc3NC(=O)[C@H]2Cc2cccs2)cc1 [Example 1k],10 to 35
14,"Cc1ccc(NC(=O)c2ccc(CN3C(=O)c4ccc(Cl)cc4NC(=O)[C@H]3Cc3ccccn3)s2)nc1 [Example 4bs, (R)-5-((8-chloro-2,5-dioxo-3-(pyridin-2-ylmethyl)-2,3-dihydro-1H-benzo[e][1,4]diazepin-4(5H)-yl)methyl)-N-(5-methylpyridin-2-yl)thiophene-2-carboxamide]",0.1 to 0.999
15,Cn1cnc(C(=O)c2ccc(CN3C(=O)c4ccc(Cl)cc4NC(=O)[C@H]3Cc3ccccn3)cc2)c1 [Example 31d],0.1 to 0.999
16,"O=C(Nc1ccccn1)c1ccc(C(=O)N2Cc3ccc(Cl)cc3NC(=O)[C@H]2Cc2ccccn2)cc1 [Example 19i, (R)-4-(8-chloro-2-oxo-3-(pyridin-2-ylmethyl)-2,3,4,5-tetrahydro-1H-benzo[e][1,4]diazepine-4-carbonyl)-N-(pyridin-2-yl)benzamide]",1 to 10
17,CN1CCC(CC(=O)Nc2cc(CN3C(=O)c4ccc(Cl)cc4NC(=O)[C@H]3Cc3ccccn3)ccc2C(=O)O)CC1 [Example 22l],0.1 to 0.999
18,O=C(Nc1ccccn1)c1ccc(CN2C(=O)c3ccc(Cl)cc3NC(=O)C2CC2CCOCC2)cc1 (stereo not shown) [Example 35e],1 to 10
